Tested on: HUVEC/MSC spheroids viability
Experiment: Human HUVEC/MSC cell line growth inhibition [KRAS2];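 for viability, T/C: percent of DMSO vehicle control luminescence so 100% = untreated viability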
Conditions: for IC50: curve of first compound; for viability, T/C: stronger effect = lower value; active = viability on the fitted dose curve at most 10% of control; inactive = the rest
Outline: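 Spheroids of pooled-donor HUVEC and hMSC (passage ≤5) without tumour cells were treated with KRAS-pathway inhibitors alone and combined with targeted agents. Top concentration was at or near clinical Cmax, or 10 microM when Cmax was unknown, descending in half-log steps.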

[1] = second compound 0.0316 µM, first compound 0.0316 µM
[2] = second compound 0.0316 µM, first compound 0.1 µM
[3] = second compound 0.0316 µM, first compound 0.316 µM
[4] = second compound 0.0316 µM, first compound 1 µM
[5] = second compound 0.0316 µM, first compound 3.16 µM
[6] = second compound 0.0316 µM, first compound 10 µM
[7] = second compound 0.1 µM, first compound 0.0316 µM
[8] = second compound 0.1 µM, first compound 0.1 µM
[9] = second compound 0.1 µM, first compound 0.316 µM
[10] = second compound 0.1 µM, first compound 1 µM
[11] = second compound 0.1 µM, first compound 3.16 µM
[12] = second compound 0.1 µM, first compound 10 µM
[13] = second compound 0.316 µM, first compound 0.0316 µM
[14] = second compound 0.316 µM, first compound 0.1 µM
[15] = second compound 0.316 µM, first compound 0.316 µM
[16] = second compound 0.316 µM, first compound 1 µM
[17] = second compound 0.316 µM, first compound 3.16 µM
[18] = second compound 0.316 µM, first compound 10 µM
[19] = second compound 1 µM, first compound 0.0316 µM
[20] = second compound 1 µM, first compound 0.1 µM
[21] = second compound 1 µM, first compound 0.316 µM
[22] = second compound 1 µM, first compound 1 µM
[23] = second compound 1 µM, first compound 3.16 µM
[24] = second compound 1 µM, first compound 10 µM
[25] = second compound 3.16 µM, first compound 0.0316 µM
[26] = second compound 3.16 µM, first compound 0.1 µM
[27] = second compound 3.16 µM, first compound 0.316 µM
[28] = second compound 3.16 µM, first compound 1 µM
[29] = second compound 3.16 µM, first compound 3.16 µM
[30] = second compound 3.16 µM, first compound 10 µM
[31] = second compound 10 µM, first compound 0.0316 µM
[32] = second compound 10 µM, first compound 0.1 µM
[33] = second compound 10 µM, first compound 0.316 µM
[34] = second compound 10 µM, first compound 1 µM
[35] = second compound 10 µM, first compound 3.16 µM
[36] = second compound 10 µM, first compound 10 µM

CC1OCC2(CCN(c3cnc(Sc4ccnc(N)c4Cl)c(N)n3)CC2)C1N (stereo unspecified) + C=CC(=O)N1CCN(c2nc(=O)n(-c3c(C)ccnc3C(C)C)c3nc(-c4c(O)cccc4F)c(F)cc23)C(C)C1
inactive: viability, T/C [1] 118% | viability, T/C [2] 101% | viability, T/C [3] 105% | viability, T/C [4] 80.5% | viability, T/C [5] 70.1% | viability, T/C [6] 70.5% | viability, T/C [7] 110% | viability, T/C [8] 107% | viability, T/C [9] 97.2% | viability, T/C [10] 84.3% | viability, T/C [11] 72% | viability, T/C [12] 67.9% | viability, T/C [13] 96.8% | viability, T/C [14] 129% | viability, T/C [15] 92.1% | viability, T/C [16] 88% | viability, T/C [17] 81.8% | viability, T/C [18] 78.5% | viability, T/C [19] 101% | viability, T/C [20] 126% | viability, T/C [21] 105% | viability, T/C [22] 99.7% | viability, T/C [23] 89% | viability, T/C [24] 77.5% | viability, T/C [25] 116% | viability, T/C [26] 136% | viability, T/C [27] 111% | viability, T/C [28] 92.7% | viability, T/C [29] 109% | viability, T/C [30] 71.3% | viability, T/C [31] 104% | viability, T/C [32] 121% | viability, T/C [33] 120% | viability, T/C [34] 98.3% | viability, T/C [35] 95.5% | viability, T/C [36] 54.7%
> 10000 nM: IC50 (second compound 0.0316 µM) | IC50 (second compound 0.1 µM) | IC50 (second compound 0.316 µM) | IC50 (second compound 1 µM) | IC50 (second compound 3.16 µM) | IC50 (second compound 10 µM)

Cn1nccc1Nc1nccc(-c2cc3c(s2)C(C)(C)N(CCN2CCOCC2)C3=O)n1 + C=CC(=O)N1CCN(c2nc(=O)n(-c3c(C)ccnc3C(C)C)c3nc(-c4c(O)cccc4F)c(F)cc23)C(C)C1
2700 nM: IC50 (second compound 0.316 µM)
2650 nM: IC50 (second compound 0.1 µM)
2980 nM: IC50 (second compound 0.0316 µM)
active: viability, T/C [6] 5.76% | viability, T/C [12] 9.02% | viability, T/C [18] 5.77% | viability, T/C [24] 4.48% | viability, T/C [30] 4.12% | viability, T/C [36] 3.03%
3090 nM: IC50 (second compound 1 µM)
2660 nM: IC50 (second compound 3.16 µM)
inactive: viability, T/C [1] 86.7% | viability, T/C [2] 102% | viability, T/C [3] 112% | viability, T/C [4] 93.3% | viability, T/C [5] 47.7% | viability, T/C [7] 105% | viability, T/C [8] 108% | viability, T/C [9] 105% | viability, T/C [10] 93.4% | viability, T/C [11] 42.1% | viability, T/C [13] 99.2% | viability, T/C [14] 114% | viability, T/C [15] 98.6% | viability, T/C [16] 99.6% | viability, T/C [17] 42.2% | viability, T/C [19] 99.8% | viability, T/C [20] 118% | viability, T/C [21] 129% | viability, T/C [22] 90.2% | viability, T/C [23] 51.1% | viability, T/C [25] 115% | viability, T/C [26] 129% | viability, T/C [27] 112% | viability, T/C [28] 84% | viability, T/C [29] 45.3% | viability, T/C [31] 150% | viability, T/C [32] 128% | viability, T/C [33] 135% | viability, T/C [34] 106% | viability, T/C [35] 37%
2560 nM: IC50 (second compound 10 µM)

CC(=O)OC12COC1CC(O)C1(C)C(=O)C(O)C3=C(C)C(OC(=O)C(O)C(NC(=O)OC(C)(C)C)c4ccccc4)CC(O)(C(OC(=O)c4ccccc4)C21)C3(C)C (stereo unspecified) + C=CC(=O)N1CCN(c2nc(OCC3CCCN3C)nc3c2CCN(c2cccc4cccc(C)c24)C3)CC1CC#N
< 9.49 nM: IC50 (second compound 0.00949 µM) | IC50 (second compound 0.03 µM) | IC50 (second compound 0.0949 µM) | IC50 (second compound 0.3 µM) | IC50 (second compound 0.949 µM)
> 3000 nM: IC50 (second compound 3 µM)
inactive: viability, T/C (second compound 0.00949 µM, first compound 0.00949 µM) 48.9% | viability, T/C (second compound 0.00949 µM, first compound 0.03 µM) 42.7% | viability, T/C (second compound 0.00949 µM, first compound 0.0949 µM) 47.8% | viability, T/C (second compound 0.00949 µM, first compound 0.3 µM) 47% | viability, T/C (second compound 0.00949 µM, first compound 0.949 µM) 47.8% | viability, T/C (second compound 0.00949 µM, first compound 3 µM) 58% | viability, T/C (second compound 0.03 µM, first compound 0.00949 µM) 44.7% | viability, T/C (second compound 0.03 µM, first compound 0.03 µM) 40.9% | viability, T/C (second compound 0.03 µM, first compound 0.0949 µM) 38% | viability, T/C (second compound 0.03 µM, first compound 0.3 µM) 48.1% | viability, T/C (second compound 0.03 µM, first compound 0.949 µM) 47.1% | viability, T/C (second compound 0.03 µM, first compound 3 µM) 49.4% | viability, T/C (second compound 0.0949 µM, first compound 0.00949 µM) 44.3% | viability, T/C (second compound 0.0949 µM, first compound 0.03 µM) 42.1% | viability, T/C (second compound 0.0949 µM, first compound 0.0949 µM) 41.6% | viability, T/C (second compound 0.0949 µM, first compound 0.3 µM) 40.4% | viability, T/C (second compound 0.0949 µM, first compound 0.949 µM) 45.1% | viability, T/C (second compound 0.0949 µM, first compound 3 µM) 48.3% | viability, T/C (second compound 0.3 µM, first compound 0.00949 µM) 40.4% | viability, T/C (second compound 0.3 µM, first compound 0.03 µM) 49.7% | viability, T/C (second compound 0.3 µM, first compound 0.0949 µM) 45% | viability, T/C (second compound 0.3 µM, first compound 0.3 µM) 34.3% | viability, T/C (second compound 0.3 µM, first compound 0.949 µM) 48.1% | viability, T/C (second compound 0.3 µM, first compound 3 µM) 55% | viability, T/C (second compound 0.949 µM, first compound 0.00949 µM) 44.7% | viability, T/C (second compound 0.949 µM, first compound 0.03 µM) 48.3% | viability, T/C (second compound 0.949 µM, first compound 0.0949 µM) 50.5% | viability, T/C (second compound 0.949 µM, first compound 0.3 µM) 44.5% | viability, T/C (second compound 0.949 µM, first compound 0.949 µM) 63.9% | viability, T/C (second compound 0.949 µM, first compound 3 µM) 51.5% | viability, T/C (second compound 3 µM, first compound 0.00949 µM) 82.6% | viability, T/C (second compound 3 µM, first compound 0.03 µM) 76.2% | viability, T/C (second compound 3 µM, first compound 0.0949 µM) 75.6% | viability, T/C (second compound 3 µM, first compound 0.3 µM) 62.6% | viability, T/C (second compound 3 µM, first compound 0.949 µM) 67.5% | viability, T/C (second compound 3 µM, first compound 3 µM) 90.5%

— PubChem BioAssay AID2060912 (Molecular Pharmacology Branch, DTP, NCI, 2025)
